In the supplement of paper PMC11451515:

What was measured:
Test in all cases: AUC of viability dose-response curve (% viability x log10 dose units); higher = less sensitive
Settings in all cases: 48 h
[1] = tested on: P12-Ichikawa
Summary of the method: (§1)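 Medium-adapted leukemia cells in 1536-well plates, at 500 or 1000 cells/well, were incubated for 48 h at 37°C with library compounds in DMSO at 11 threefold doses from 47 μM to 0.79 nM. CellTiter-Glo One luminescence normalised per plate to DMSO and cell-free wells was fitted with a four-parameter log-logistic model over log10 doses. Area under the curve was integrated from this fit by trapezoidal rule, with curves beyond full viability scaled and failed quality-control curves removed.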

[2] = tested on: SEM cells
Summary of the method: as §1

[3] = tested on: NOMO1
Summary of the method: as §1

[4] = RPMI 5 mM glucose + 10% dialyzed FBS

Row | SMILES | AUC of viability dose-response curve ([1]; HPLM + 10% dialyzed FBS) | AUC of viability dose-response curve ([1]; RPMI 5 mM glucose + 10% FBS) | AUC of viability dose-response curve [1, 4] | AUC of viability dose-response curve ([2]; HPLM + 10% dialyzed FBS) | AUC of viability dose-response curve ([2]; RPMI 5 mM glucose + 10% FBS) | AUC of viability dose-response curve [2, 4] | AUC of viability dose-response curve ([3]; HPLM + 10% dialyzed FBS) | AUC of viability dose-response curve ([3]; RPMI 5 mM glucose + 10% FBS) | AUC of viability dose-response curve [3, 4]
1 | C\C1=C(\C=C(C#N)/C(=O)N1)C2=C[N]3C=CN=C3C=C2 | 419 | 394 | 375 | 383 | 424 | 411 | 407 | 393 | 405
2 | N[C@H](CSC(c1ccccc1)(c1ccccc1)c1ccccc1)C(=O)O | 472 | 437 | 470 | – | – | – | 470 | 466 | 465
3 | C/C=C(/C)C(=O)O[C@H]1C(C)=C[C@]23C(=O)[C@@H](C=C(CO)[C@@H](O)[C@]12O)[C@H]1[C@@H](C[C@H]3C)C1(C)C | 397 | 336 | 361 | 392 | 349 | 431 | 324 | 336 | 314
4 | C#C[C@]1(O)CC[C@H]2[C@@H]3CCc4cc(O)ccc4[C@H]3CC[C@@]21C | 441 | 418 | 410 | 442 | 440 | 448 | 444 | 442 | 429
5 | CN(NC(=O)CC(=O)NN(C)C(=S)c1ccccc1)C(=S)c1ccccc1 | 216 | 204 | 217 | – | – | – | 207 | 197 | 178
6 | CC(C)C[C@H](NC(=O)[C@H](CCc1ccccc1)NC(=O)CN1CCOCC1)C(=O)N[C@@H](Cc1ccccc1)C(=O)N[C@@H](CC(C)C)C(=O)[C@@]1(C)CO1 | 162 | 139 | 140 | – | – | – | 177 | 152 | 169
7 | S=P(N1CC1)(N1CC1)N1CC1 | 452 | 470 | 448 | 455 | 446 | 441 | 468 | 458 | 468
8 | C[C@]1(c2nc3c(C(N)=O)cccc3[nH]2)CCCN1 | 399 | 353 | 356 | 372 | 393 | 352 | 368 | 349 | 374
9 | CN1CCCN=C1/C=C/c1cccs1.O=C(O)c1cc2ccccc2c(Cc2c(O)c(C(=O)O)cc3ccccc23)c1O | 413 | 462 | 462 | 467 | 442 | 453 | 417 | 446 | 436
10 | CCn1c(-c2nonc2N)nc2cnc(Oc3cccc(NC(=O)c4ccc(OCCN5CCOCC5)cc4)c3)cc21 | 446 | 427 | 438 | 457 | 442 | 456 | 456 | 432 | 429
11 | COc1cc2nccc(Oc3ccc(NC(=O)NC4CC4)c(Cl)c3)c2cc1C(N)=O | 429 | 429 | 430 | 378 | 378 | 359 | 439 | 448 | 445
12 | Cc1cn([C@@H]2O[C@H](CO)[C@@H](O)[C@@H]2F)c(=O)[nH]c1=O | – | – | – | 467 | 437 | 469 | 456 | 460 | 458
13 | C[S+](=O)([O-])N1CCc2c(-c3cnc(N)nc3)nc(N3CCOCC3)nc21 | 457 | 431 | 440 | – | – | – | 418 | 442 | 404
14 | C[S+]([O-])(=O)C1=CC=C(C=C1)C/2=C(/C(=O)OC2)C3=CC=CC=C3 | 468 | 449 | 472 | 466 | 431 | 453 | 465 | 463 | 445
15 | COC(=O)[C@@H]1[C@H]2C[C@H]3c4[nH]c5ccccc5c4CCN3C[C@@H]2CC[C@@H]1O | 373 | 378 | 402 | 440 | 441 | 451 | 356 | 325 | 350
16 | Cc1cc(C(C)(C)C)c(O)c(C)c1CC1=NCCN1 | 454 | 444 | 429 | 360 | 392 | 400 | 432 | 419 | 422
17 | C=C(C)[C@H]1Cc2c(ccc3c2O[C@@H]2COc4cc(OC)c(OC)cc4[C@@H]2C3=O)O1 | 376 | 335 | 366 | 370 | 337 | 379 | 389 | 399 | 413
18 | COc1cc2c(cc1OC)CC(=O)N(CCCN(C)C[C@H]1Cc3cc(OC)c(OC)cc31)CC2.Cl | 475 | 477 | 459 | 464 | 465 | 469 | 466 | 463 | 440
19 | CSCC[C@@H](NC(=O)[C@@H](Cc1ccccc1)NC(=O)CNC(=O)CNC(=O)[C@@H](N)Cc1ccc(O)cc1)C(=O)O | – | – | – | 406 | 389 | 409 | – | – | –
20 | CNc1nccc(-c2cccnc2Oc2cc(C(=O)Nc3cccc(C(F)(F)F)c3)ccc2C)n1 | 467 | 462 | 468 | 466 | 460 | 461 | 458 | 458 | 461
21 | Cc1cccc(Nc2nc(-c3ccncc3)cs2)c1 | 470 | 469 | 465 | 466 | 464 | 454 | 442 | 466 | 473
22 | CC/1=C(/N2[C@H](SC1)[C@H](NC(=O)[C@H](N)\C3=C\C\C=C/C3)C2=O)C(O)=O | 471 | 441 | 440 | 429 | 470 | 448 | 446 | 454 | 461
23 | Cc1[nH]c2ccccc2c1CCNCc1ccc(/C=C/C(=O)NO)cc1 | 298 | 292 | 304 | 265 | 251 | 273 | 300 | 311 | 312
24 | N=C(NCCCCCCNC(=N)NC(=N)Nc1ccc(Cl)cc1)NC(=N)Nc1ccc(Cl)cc1 | 452 | 416 | 419 | 453 | 468 | 420 | 454 | 409 | 440
25 | Cn1c(CNc2ccc(C(=N)N)cc2)nc2cc(C(=O)N(CCC(=O)O)c3ccccn3)ccc21 | 448 | 472 | 465 | 424 | 469 | 451 | 441 | 443 | 440

Row | SMILES | AUC of viability dose-response curve ([1]; HPLM + 10% dialyzed FBS) | AUC of viability dose-response curve ([1]; RPMI 5 mM glucose + 10% FBS) | AUC of viability dose-response curve [1, 4] | AUC of viability dose-response curve ([2]; HPLM + 10% dialyzed FBS) | AUC of viability dose-response curve ([2]; RPMI 5 mM glucose + 10% FBS) | AUC of viability dose-response curve [2, 4] | AUC of viability dose-response curve ([3]; HPLM + 10% dialyzed FBS) | AUC of viability dose-response curve ([3]; RPMI 5 mM glucose + 10% FBS) | AUC of viability dose-response curve [3, 4]
26 | C\C1=C(\C=C(\C#N)C(=O)N1)C2=CC=NC=C2 | – | – | – | 418 | 471 | 460 | 474 | 464 | 468
27 | O=C(Nc1c(Cl)cncc1Cl)c1ccc(OC(F)F)c(OCC2CC2)c1 | 475 | 467 | 466 | 453 | 452 | 455 | 459 | 465 | 476
28 | CC(C)C(=O)Oc1ccc(CO)cc1[C@H](CCN(C(C)C)C(C)C)c1ccccc1 | 405 | 398 | 381 | 376 | 402 | 433 | – | – | –
29 | CC(C)C[C@@H](C=O)NC(=O)[C@H](CC(C)C)NC(=O)[C@H](CC(C)C)NC(=O)OCc1ccccc1 | 364 | 324 | 361 | 305 | 279 | 315 | 337 | 312 | 351
30 | NC(=O)c1ccc(I)c([N+](=O)[O-])c1 | 461 | 457 | 468 | 473 | 470 | 467 | 468 | 475 | 464
31 | CCC(C)(C)c1ccc(CC(C)CN2C[C@@H](C)O[C@@H](C)C2)cc1 (some centres not stated) | 424 | 417 | 380 | 356 | 369 | 398 | 422 | 368 | 397
32 | Cc1cc2c(F)c(Oc3ncnn4cc(OC[C@@H](C)O)c(C)c34)ccc2[nH]1 | 442 | 454 | 448 | 394 | 372 | 380 | 459 | 453 | 446
33 | OC1CCC(Nc2ncc3nc(Nc4c(F)cc(F)cc4F)n([C@@H]4CCOC4)c3n2)CC1 (some centres not stated) | 468 | 465 | 468 | 474 | 452 | 458 | 465 | 446 | 448
34 | COc1ccc(-c2nc(N3CCOCC3)c3sc(CN(C)c4ncc(C(=O)NO)cn4)cc3n2)cn1 | 163 | 162 | 172 | 136 | 113 | 144 | 156 | 169 | 166
35 | CC(C)CC(=O)N[C@H](C(=O)N[C@H](C(=O)N[C@@H](CC(C)C)[C@@H](O)CC(=O)N[C@@H](C)C(=O)N[C@@H](CC(C)C)[C@@H](O)CC(=O)O)C(C)C)C(C)C | 471 | 476 | 477 | 443 | 435 | 437 | 450 | 445 | 467
36 | COc1cc(OC)c(/C=C/[S+](=O)([O-])Cc2ccc(OC)c(NCC(=O)[O][Na])c2)c(OC)c1 | 271 | 269 | 257 | 287 | 269 | 249 | 315 | 309 | 278
37 | O=C(NC[C@H](O)CO)c1ccncc1Nc1ccc(I)cc1F | 467 | 437 | 464 | 426 | 376 | 378 | 328 | 290 | 309
38 | COc1cc2ncnc(Nc3ccc(F)c(Cl)c3)c2cc1NC(=O)/C=C/CN1CCCCC1 | 433 | 444 | 436 | 417 | 415 | 416 | 408 | 426 | 418
39 | COC1=C2OC(=O)\C=C/C2=CC3=C1OC=C3 | 447 | 449 | 426 | 459 | 458 | 456 | 465 | 451 | 466
40 | O=C(O)c1ccc2c(c1)nc(Nc1cccc(Cl)c1)c1ccncc12 | 453 | 437 | 429 | 421 | 412 | 406 | 425 | 437 | 441
41 | COc1ncc(-c2ccc3nccc(-c4ccnnc4)c3c2)cc1N[S+](=O)([O-])c1ccc(F)cc1F | 354 | 266 | 310 | – | – | – | 303 | 279 | 297
42 | CCOC(=O)\C1=C(/C)N\C2=C(C1C3=CC=C(C=C3)C4=CC=CC=C4)\C(=O)CC(C)(C)C2 (configuration not stated) | 457 | 457 | 444 | 461 | 451 | 450 | 438 | 465 | 447
43 | CNC[C@H](O)c1ccc(O)c(O)c1 | 446 | 448 | 412 | – | – | – | 425 | 402 | 408
44 | CNC(=O)c1ccc(N2C(=S)N(c3ccc(C#N)c(C(F)(F)F)c3)C(=O)C23CCC3)cc1F | – | – | – | 425 | 408 | 411 | – | – | –
45 | OC[C@H]1OCC(O1)[N@@]2C=CC(N)=NC2=O (some centres not stated) | 458 | 458 | 446 | – | – | – | 465 | 463 | 475
46 | O=C1c2c(O)ccc(O)c2C(=O)c2c(NCCNCCO)ccc(NCCNCCO)c21 | 286 | 280 | 296 | 251 | 261 | 261 | – | – | –
47 | CCN1\C=C(\C(O)=O)C(=O)C2=CC=C(C)N=C12 | 466 | 426 | 427 | 397 | 425 | 410 | – | – | –
48 | C[C@]12CCC(=O)C=C1CC[C@@H]1[C@@H]2CC[C@@]2(C)[C@H]1CC[C@]2(C)O | 465 | 458 | 452 | – | – | – | 440 | 430 | 453
49 | Cc1c(NC(=O)OC[C@@H]2COCCN2)cn2ncnc(Nc3ccc4c(cnn4Cc4cccc(F)c4)c3)c12 | 422 | 401 | 417 | – | – | – | 379 | 410 | 397
